The subject of the series is post-menopausal women with MDD. The series is described as follows: Post hoc analysis of the Example 1 study: post-menopausal women with MDD. It counts as in vivo, human. The source says: Hormonal changes during early menopause can often affect the metabolism of antidepressants (ADTs). Postmenopausal/older women may not respond well to ADTs. This example presents a post hoc analysis of the study described in Example 1 in post-menopausal women with MDD.
The study described in Example 1 enrolled patients with MDD, aged 18-75 years, with HAMD-17≥20 and a MADRS total score ≥28 to 1 of 2 cohorts: 30-mg Cohort and 50-mg Cohort. HAMD-17 responders (≥50% reduction from baseline) at Day 15 continued in study and were assessed for repeat-treatment eligibility. Post-menopausal women aged ≥45 were identified based on follicle stimulating hormone >40 at baseline (central lab data) and if medical history coded terms contained ‘menopause’.

Setting [1] is: Day 15, post-menopausal patients.

With `C[C@@]1(O)CC[C@H]2[C@H](CC[C@@H]3[C@@H]2CC[C@]2(C)[C@@H](C(=O)Cn4cc(C#N)cn4)CC[C@@H]32)C1` [Compound (1), 1-(2-((3R,5R,8R,9R,10S,13S,14S,17S)-3-hydroxy-3,13-dimethylhexadecahydro-1H-cyclopenta[a]phenanthren-17-yl)-2-oxoethyl)-1H-pyrazole-4-carbonitrile], the “Patients not requiring additional courses during their time in the study” value (106/152 post-menopausal patients who responded to and completed treatment cycle 1) worked out at 42.5%. Under setting [1], the HAMD-17 remission rate is reported as 39.6%, the HAMD-17 response rate is reported as 75.7% and the “Mean (SD) CFB in HAMD-17” value is −16.0 (7.00). Moreover, under “post-menopausal patients”, the TEAE diarrhea is given as 7.9%, the TEAE dizziness was found to be 11.8%, the TEAE dry mouth is on record as 7.2% and the TEAE headache came out at 13.2%. Besides, for the setting “post-menopausal patients”, the TEAE insomnia is listed as 6.6%, the TEAE sedation was 6.6%, the TEAE somnolence was 12.5% and the “TEAE upper respiratory infection” value came to 7.9%. Besides, the “TEAEs leading to discontinuation of study drug” value (post-menopausal patients (8/152)) is 5.3%. In addition, the “TEAEs leading to withdrawal from the study” value (post-menopausal patients (9/152)) is on record as 5.9%. Besides, for the setting “post-menopausal patients (16/152)”, the “TEAEs leading to dose reduction” value was 10.5%. In addition, the “Share of patients with TEAEs that were mild or moderate” value (post-menopausal patients (90/102)) came to 88.2%. Further, the “Patients with at least 1 TEAE over the study duration” value (post-menopausal patients (102/152)) is 67.1%. In addition, the “Mean (range) number of total treatment courses” value (post-menopausal patients, cycle 1 responders) is recorded as 2.2 (1-5). Moreover, the Tolerability result (post-menopausal women) is recorded as “generally well-tolerated”.

The values above are taken from patent US20240245711A1, “A 19-NOR C3,3-DISUBSTITUTED C21-N-PYRAZOLYL STEROID FOR THE TREATMENT OF MAJOR DEPRESSIVE DISORDER” (Sage Therapeutics, Inc., priority 2021, published 2024).
